{
  "source": "patent US20220117919A1",
  "about": "“ENHANCED BIOAVAILABILITY OF N-(2,6-BIS(1-METHYLETHYL)PHENYL)-N'-((1-(4-(DIMETHYLAMINO)-PHENYL)CYCLOPENTYL)METHYL)UREA HYDROCHLORIDE” (The Regents of the University of Michigan, priority 2015, published 2022)",
  "origin": "cited, not measured here",
  "tested_on": "adrenocortical carcinoma (ACC)",
  "conditions": "cited from earlier work",
  "data": [
    {"compound": "Clc1ccc(C(c2ccccc2Cl)C(Cl)Cl)cc1", "note": "(centres unmarked) [mitotane]", "values": [
      {"measurement": "average delay of disease progression", "setting": "ACC patients that derive a therapeutic benefit", "value": "five"},
      {"measurement": "share of patients with increased progression-free survival", "setting": "ACC patients", "value": "one-quarter to one-third"}
    ]}
  ]
}
